Organism: Rattus norvegicus
Experiment: DrugMatrix - Regimen: Daily Repeat
Format: toxicity, organism-based, Sprague-Dawley
Parameters: regimen Daily Repeat, gender Male, age 6-8 weeks
Conditions: in vivo, po, route oral GAVAGE, vehicle .5 % CMC; for ABSOLUTE BASOPHIL / ABSOLUTE EOSINOPHIL / ABSOLUTE LYMPHOCYTE / ABSOLUTE MONOCYTE / ABSOLUTE SEGMENTED NEUTROPHIL / BASOPHIL / EOSINOPHIL / ERYTHROCYTE COUNT / HEMATOCRIT / HEMOGLOBIN / LEUKOCYTE COUNT / LYMPHOCYTE / MEAN CORPUSCULAR HEMOGLOBIN / MEAN CORPUSCULAR HEMOGLOBIN CONCENTRATION / MEAN CORPUSCULAR VOLUME / MONOCYTE / NEUTROPHIL / NUCLEATED RED BLOOD CELLS / PLATELET COUNT: tissue Blood; for ALANINE AMINOTRANSFERASE / ALBUMIN / ALKALINE PHOSPHATASE / ASPARTATE AMINOTRANSFERASE / BLOOD UREA NITROGEN / CARBON DIOXIDE / CHLORIDE / CHOLESTEROL / CREATINE PHOSPHOKINASE / CREATININE / GLUCOSE / LACTATE DEHYDROGENASE / LIPASE / PHOSPHORUS / POTASSIUM / SODIUM / TOTAL BILIRUBIN / TOTAL PROTEIN / URIC ACID: tissue Plasma
[1] = 200 mg/kg, 72 h, dose level Low, time 3 day
[2] = 200 mg/kg, 120 h, dose level Low, time 5 day
[3] = 1300 mg/kg, 72 h, dose level High, time 3 day
[4] = 1300 mg/kg, 120 h, dose level High, time 5 day

Compound: NC(=O)c1ccccc1O [SALICYLAMIDE]
- ABSOLUTE BASOPHIL [1]: 0 CELLS/uL
- ABSOLUTE EOSINOPHIL [1]: 126.67 CELLS/uL
- ABSOLUTE LYMPHOCYTE [1]: 13749 CELLS/uL
- ABSOLUTE MONOCYTE [1]: 274.67 CELLS/uL
- ABSOLUTE SEGMENTED NEUTROPHIL [1]: 2049.67 CELLS/uL
- BASOPHIL [1]: 0%
- EOSINOPHIL [1]: 0.67%
- ERYTHROCYTE COUNT [1]: 5.79 x10E6/uL
- HEMATOCRIT [1]: 37.07%
- HEMOGLOBIN [1]: 13.9 G/DL
- LEUKOCYTE COUNT [1]: 16.2 x10E3/uL
- LYMPHOCYTE [1]: 85%
- MEAN CORPUSCULAR HEMOGLOBIN [1]: 24.03 pg
- MEAN CORPUSCULAR HEMOGLOBIN CONCENTRATION [1]: 37.5 G/DL
- MEAN CORPUSCULAR VOLUME [1]: 64.07 fL
- MONOCYTE [1]: 1.67%
- NEUTROPHIL [1]: 12.67%
- NUCLEATED RED BLOOD CELLS [1]: 0 /100WBC
- PLATELET COUNT [1]: 1342.33 x10E3/uL
- ALANINE AMINOTRANSFERASE [1]: 47 u/L
- ALBUMIN [1]: 4.23 G/DL
- ALKALINE PHOSPHATASE [1]: 337 u/L
- ASPARTATE AMINOTRANSFERASE [1]: 92 u/L
- BLOOD UREA NITROGEN [1]: 14.67 mg/dL
- CARBON DIOXIDE [1]: 28.67 mmol/L
- CHLORIDE [1]: 102.33 MEQ/L
- CHOLESTEROL [1]: 91.33 mg/dL
- CREATINE PHOSPHOKINASE [1]: 270 u/L
- CREATININE [1]: 0.24 mg/dL
- GLUCOSE [1]: 149.67 mg/dL
- LACTATE DEHYDROGENASE [1]: 413.33 u/L
- LIPASE [1]: 9.67 u/L
- PHOSPHORUS [1]: 12.53 mg/dL
- POTASSIUM [1]: 7.01 MEQ/L
- SODIUM [1]: 146.23 MEQ/L
- TOTAL BILIRUBIN [1]: 0.2 mg/dL
- TOTAL PROTEIN [1]: 5.93 G/DL
- URIC ACID [1]: 1.77 mg/dL
- ABSOLUTE BASOPHIL [2]: 0 CELLS/uL
- ABSOLUTE EOSINOPHIL [2]: 0 CELLS/uL
- ABSOLUTE LYMPHOCYTE [2]: 13314 CELLS/uL
- ABSOLUTE MONOCYTE [2]: 96.33 CELLS/uL
- ABSOLUTE SEGMENTED NEUTROPHIL [2]: 1389.67 CELLS/uL
- BASOPHIL [2]: 0%
- EOSINOPHIL [2]: 0%
- ERYTHROCYTE COUNT [2]: 5.67 x10E6/uL
- HEMATOCRIT [2]: 34.73%
- HEMOGLOBIN [2]: 13.53 G/DL
- LEUKOCYTE COUNT [2]: 14.8 x10E3/uL
- LYMPHOCYTE [2]: 90%
- MEAN CORPUSCULAR HEMOGLOBIN [2]: 24 pg
- MEAN CORPUSCULAR HEMOGLOBIN CONCENTRATION [2]: 39 G/DL
- MEAN CORPUSCULAR VOLUME [2]: 61.53 fL
- MONOCYTE [2]: 0.67%
- NEUTROPHIL [2]: 9.33%
- NUCLEATED RED BLOOD CELLS [2]: 0 /100WBC
- PLATELET COUNT [2]: 1300.67 x10E3/uL
- ALANINE AMINOTRANSFERASE [2]: 41.67 u/L
- ALBUMIN [2]: 4.13 G/DL
- ALKALINE PHOSPHATASE [2]: 340 u/L
- ASPARTATE AMINOTRANSFERASE [2]: 77.67 u/L
- BLOOD UREA NITROGEN [2]: 15.33 mg/dL
- CARBON DIOXIDE [2]: 27 mmol/L
- CHLORIDE [2]: 104 MEQ/L
- CHOLESTEROL [2]: 78.33 mg/dL
- CREATINE PHOSPHOKINASE [2]: 235.33 u/L
- CREATININE [2]: 0.22 mg/dL
- GLUCOSE [2]: 151 mg/dL
- LACTATE DEHYDROGENASE [2]: 176 u/L
- LIPASE [2]: 9.33 u/L
- PHOSPHORUS [2]: 12.43 mg/dL
- POTASSIUM [2]: 6.83 MEQ/L
- SODIUM [2]: 145.3 MEQ/L
- TOTAL BILIRUBIN [2]: 0.13 mg/dL
- TOTAL PROTEIN [2]: 5.83 G/DL
- URIC ACID [2]: 1.57 mg/dL
- ABSOLUTE BASOPHIL [3]: 0 CELLS/uL
- ABSOLUTE EOSINOPHIL [3]: 0 CELLS/uL
- ABSOLUTE LYMPHOCYTE [3]: 15293.5 CELLS/uL
- ABSOLUTE MONOCYTE [3]: 351 CELLS/uL
- ABSOLUTE SEGMENTED NEUTROPHIL [3]: 1905.5 CELLS/uL
- BASOPHIL [3]: 0%
- EOSINOPHIL [3]: 0%
- ERYTHROCYTE COUNT [3]: 6 x10E6/uL
- HEMATOCRIT [3]: 36.9%
- HEMOGLOBIN [3]: 14.4 G/DL
- LEUKOCYTE COUNT [3]: 17.55 x10E3/uL
- LYMPHOCYTE [3]: 87%
- MEAN CORPUSCULAR HEMOGLOBIN [3]: 24 pg
- MEAN CORPUSCULAR HEMOGLOBIN CONCENTRATION [3]: 39 G/DL
- MEAN CORPUSCULAR VOLUME [3]: 61.55 fL
- MONOCYTE [3]: 2%
- NEUTROPHIL [3]: 11%
- NUCLEATED RED BLOOD CELLS [3]: 0 /100WBC
- PLATELET COUNT [3]: 1429 x10E3/uL
- ALANINE AMINOTRANSFERASE [3]: 90 u/L
- ALBUMIN [3]: 4.2 G/DL
- ALKALINE PHOSPHATASE [3]: 469 u/L
- ASPARTATE AMINOTRANSFERASE [3]: 83 u/L
- BLOOD UREA NITROGEN [3]: 14 mg/dL
- CARBON DIOXIDE [3]: 30.5 mmol/L
- CHLORIDE [3]: 101 MEQ/L
- CHOLESTEROL [3]: 71.5 mg/dL
- CREATINE PHOSPHOKINASE [3]: 167.5 u/L
- CREATININE [3]: 0.12 mg/dL
- GLUCOSE [3]: 146.5 mg/dL
- LACTATE DEHYDROGENASE [3]: 166 u/L
- LIPASE [3]: 9.5 u/L
- PHOSPHORUS [3]: 12.5 mg/dL
- POTASSIUM [3]: 6.86 MEQ/L
- SODIUM [3]: 145.55 MEQ/L
- TOTAL BILIRUBIN [3]: 0.2 mg/dL
- TOTAL PROTEIN [3]: 5.75 G/DL
- URIC ACID [3]: 1.65 mg/dL
- ABSOLUTE BASOPHIL [4]: 0 CELLS/uL
- ABSOLUTE EOSINOPHIL [4]: 33.67 CELLS/uL
- ABSOLUTE LYMPHOCYTE [4]: 13088.67 CELLS/uL
- ABSOLUTE MONOCYTE [4]: 0 CELLS/uL
- ABSOLUTE SEGMENTED NEUTROPHIL [4]: 1544.33 CELLS/uL
- BASOPHIL [4]: 0%
- EOSINOPHIL [4]: 0.33%
- ERYTHROCYTE COUNT [4]: 5.56 x10E6/uL
- HEMATOCRIT [4]: 35.47%
- HEMOGLOBIN [4]: 14.03 G/DL
- LEUKOCYTE COUNT [4]: 14.67 x10E3/uL
- LYMPHOCYTE [4]: 88.67%
- MEAN CORPUSCULAR HEMOGLOBIN [4]: 25.27 pg
- MEAN CORPUSCULAR HEMOGLOBIN CONCENTRATION [4]: 39.6 G/DL
- MEAN CORPUSCULAR VOLUME [4]: 63.83 fL
- MONOCYTE [4]: 0%
- NEUTROPHIL [4]: 11%
- NUCLEATED RED BLOOD CELLS [4]: 0.33 /100WBC
- PLATELET COUNT [4]: 1393 x10E3/uL
- ALANINE AMINOTRANSFERASE [4]: 71 u/L
- ALBUMIN [4]: 4.07 G/DL
- ALKALINE PHOSPHATASE [4]: 356.67 u/L
- ASPARTATE AMINOTRANSFERASE [4]: 83.33 u/L
- BLOOD UREA NITROGEN [4]: 16 mg/dL
- CARBON DIOXIDE [4]: 23 mmol/L
- CHLORIDE [4]: 106.33 MEQ/L
- CHOLESTEROL [4]: 70.33 mg/dL
- CREATINE PHOSPHOKINASE [4]: 456 u/L
- CREATININE [4]: 0.21 mg/dL
- GLUCOSE [4]: 189.33 mg/dL
- LACTATE DEHYDROGENASE [4]: 144.67 u/L
- LIPASE [4]: 10 u/L
- PHOSPHORUS [4]: 12.87 mg/dL
- POTASSIUM [4]: 5.46 MEQ/L
- SODIUM [4]: 149.13 MEQ/L
- TOTAL BILIRUBIN [4]: 0.27 mg/dL
- TOTAL PROTEIN [4]: 5.83 G/DL
- URIC ACID [4]: 1.7 mg/dL

Source: ChEMBL document CHEMBL3885881, “DrugMatrix”
